According to the CheMixHub ionic liquid set:

Experiment: xn = mol fraction of the nth substance listed

CCCCCCCCCCCCCCCC[n+]1ccccc1.O=C([O-])c1ccccc1O + CC(C)C[C@H](N)C(=O)O + O
electrical conductivity [S/m], 101 kPa
Conditions	293.15 K	298.15 K	303.15 K	308.15 K	313.15 K
x2 = 0.0009002, x1 = 3.6e-07	0.000905	0.00101	0.00113	0.00125	0.00138
x2 = 0.0009002, x1 = 7.2e-07	0.00104	0.00117	0.0013	0.00144	0.00159
x2 = 0.0009002, x1 = 9.1e-07	0.00119	0.00133	0.00148	0.00164	0.00181
x2 = 0.0009002, x1 = 1.27e-06	0.00132	0.00148	0.00165	0.00183	0.00201
x2 = 0.0009002, x1 = 1.63e-06	0.00147	0.00166	0.00184	0.00204	0.00225
x2 = 0.0009002, x1 = 1.99e-06	0.00163	0.00185	0.00207	0.00229	0.00253
x2 = 0.0009002, x1 = 2.54e-06	0.00179	0.00203	0.00229	0.00255	0.00282
x2 = 0.0009002, x1 = 2.9e-06	–	–	–	0.00275	0.00309
x2 = 0.0009002, x1 = 3.08e-06	0.00192	0.00218	0.00246	–	–
x2 = 0.0009002, x1 = 3.44e-06	0.00203	0.00231	0.00263	0.00297	0.00331
x2 = 0.0009002, x1 = 3.81e-06	–	0.00243	0.00276	0.00311	0.00348
x2 = 0.0009002, x1 = 3.99e-06	0.00214	–	–	–	–
x2 = 0.0009002, x1 = 4.35e-06	0.00224	0.00256	0.00289	0.00327	0.00366
x2 = 0.0009002, x1 = 4.71e-06	0.00235	0.00268	0.00303	0.00342	0.00383
x2 = 0.0009002, x1 = 5.07e-06	–	–	0.00316	0.00356	0.00399
x2 = 0.0009002, x1 = 5.26e-06	0.00246	0.0028	–	–	–
x2 = 0.0009002, x1 = 5.62e-06	0.00255	0.0029	0.00328	0.00369	0.00415
x2 = 0.0009002, x1 = 5.98e-06	0.00266	0.00302	0.00341	0.00383	0.0043
x2 = 0.001799, x1 = 3.6e-07	0.00153	0.00172	0.00192	0.00213	0.00235
x2 = 0.001799, x1 = 5.5e-07	0.00167	0.00187	0.00208	0.00231	0.00256
x2 = 0.001799, x1 = 9.1e-07	0.00179	0.00201	0.00224	0.00249	0.00275
x2 = 0.001799, x1 = 1.09e-06	0.00192	0.00216	0.00241	0.00268	0.00296
x2 = 0.001799, x1 = 1.46e-06	0.00204	0.00229	0.00256	0.00283	0.00313
x2 = 0.001799, x1 = 1.64e-06	0.00212	0.00239	0.00267	0.00297	0.00329
x2 = 0.001799, x1 = 1.82e-06	0.00221	0.00248	0.00278	0.00309	0.00341
x2 = 0.001799, x1 = 2e-06	0.00227	0.00257	0.00288	0.00321	0.00356
x2 = 0.001799, x1 = 2.19e-06	0.00235	–	0.003	0.00334	0.0037
x2 = 0.001799, x1 = 2.37e-06	–	–	–	–	0.00384
x2 = 0.001799, x1 = 2.55e-06	0.00242	0.00275	–	0.00345	–
x2 = 0.001799, x1 = 2.73e-06	0.00249	0.00284	0.00322	0.00361	0.00402
x2 = 0.001799, x1 = 3.1e-06	0.00256	0.00291	0.0033	0.0037	0.00413
x2 = 0.001799, x1 = 3.28e-06	0.00262	0.00298	0.00338	0.00379	0.00423
x2 = 0.001799, x1 = 3.46e-06	–	–	–	–	0.00434
x2 = 0.001799, x1 = 3.64e-06	0.00269	0.00306	0.00347	0.00389	–
x2 = 0.001799, x1 = 3.83e-06	0.00275	0.00312	0.00354	0.00397	0.00443

CCCC[n+]1ccn(C)c1.O=S(=O)([O-])C(F)(F)F + OCCO
100 kPa
Conditions	viscosity [mPa·s]
298.15 K, x1 = 0.0926	15.47
298.15 K, x1 = 0.6922	33.7
303.15 K, x1 = 0.0926	12.53
303.15 K, x1 = 0.4999	21.87
303.15 K, x1 = 0.6922	27.7
308.15 K, x1 = 0.2985	13.86
308.15 K, x1 = 0.4999	18.33
308.15 K, x1 = 0.6922	23.66
308.15 K, x1 = 0.7966	29
313.15 K, x1 = 0.2985	11.67
313.15 K, x1 = 0.4999	15.58
313.15 K, x1 = 0.6922	20.18
318.15 K, x1 = 0.0926	7.45
318.15 K, x1 = 0.4999	13.4
323.15 K, x1 = 0.1936	6.92
323.15 K, x1 = 0.3912	9.9
323.15 K, x1 = 0.7966	18.19

CCCCCCCCn1cc[n+](C)c1.F[B-](F)(F)F + CCC(C)=O
298.15 K, 101 kPa
Conditions	viscosity [mPa·s]
x2 = 0.101	188
x2 = 0.4505	24.78
x2 = 0.7023	5.04
x2 = 0.8033	2.29
x2 = 0.899	1.03

CCCCO + CCCC[n+]1ccn(C)c1.O=S(=O)([N-]S(=O)(=O)C(F)(F)F)C(F)(F)F
Conditions	viscosity [mPa·s]
298 K, 100 kPa, x2 = 0	2.578

CCCCO + CCCC[n+]1ccn(C)c1.O=S(=O)([O-])C(F)(F)F
100 kPa, x2 = 0
Conditions	viscosity [mPa·s]
298.15 K	2.61
303.15 K	2.31
308.15 K	2.07
313.15 K	1.85
318.15 K	1.66
323.15 K	1.5

O=C1CCCO1 + COCCn1cc[n+](C)c1.N#C[S-]
Conditions	viscosity [mPa·s]
313.15 K, 101 kPa, x2 = 0	1.38

CC(=O)C(=O)O + CC[N+](CC)(CC)CC.[Cl-]
101.3 kPa, x2 = 0.3333
Conditions	viscosity [mPa·s]
298.15 K	89.1
308.15 K	57.5
318.15 K	37.5
328.15 K	24.05
338.15 K	16.05

O=S(=O)([N-]S(=O)(=O)C(F)(F)F)C(F)(F)F.[Na+] + CCCC[N+]1(C)CCCC1.O=S(=O)([N-]S(=O)(=O)C(F)(F)F)C(F)(F)F
100 kPa, x1 = 0.24
Conditions	electrical conductivity [S/m]
280.2 K	0.013
338.7 K	0.409
347.4 K	0.521
400.6 K	1.83

CC(=O)[O-].CC[NH3+] + O
298.15 K, 101 kPa
Conditions	electrical conductivity [S/m]
x2 = 0.6519	1.55
x2 = 0.8802	2.91
x2 = 0.9004	3.01
x2 = 0.91	3.05
x2 = 0.93	3.06

CC(C)O + CCCCCC[n+]1ccn(C)c1.O=[N+]([O-])[O-]
100 kPa, x2 = 0
Conditions	viscosity [mPa·s]
293.15 K	2.42
298.15 K	2.08
303.15 K	1.8
308.15 K	1.56
313.15 K	1.36
318.15 K	1.19
323.15 K	1.05

CCCCO + CCCCCCCCCCCC[N+](C)(C)Cc1ccccc1.O=S(=O)([N-]S(=O)(=O)C(F)(F)F)C(F)(F)F
101 kPa, x2 = 0
Conditions	viscosity [mPa·s]
298.15 K	2.52
308.15 K	1.98
313.15 K	1.75
343.15 K	0.92
348.15 K	0.845

C=CCn1cc[n+](C)c1.[I-] + II
Conditions	electrical conductivity [S/m]
298 K, 101.3 kPa, x1 = 0.25	4.21
